Measured values as given in PMC2361661 (British Journal of Cancer, 2005).
“And” between values parts separate entries of the source, which are not always exact repeats. Equal entries are not always repeated. Where two headings read alike, the source gives them in different places.

How the values were obtained:
[1] = system: human ovarian tumour cell lines; settings: ref Kelland et al, 1995; cited from earlier work
[2] = system: folyl-polyglutamate synthase (FPGS); set-up: method as in Jackman et al, 1993; settings: compared to RTX; ref Jackman et al, 1993; cited from earlier work
[3] = Carboplatin pharmacokinetics by flameless atomic absorption spectrophotometry (FAAS); settings: free carboplatin, carboplatin AUC 5 with BGC9331
Protocol: Carboplatin was measured by FAAS. This method has been previously described ([LeRoy et al, 1977]). Samples were analysed on a Perkin-Elmer HGA800, AA300 Flameless atomic absorption spectrophotometer, and a Platinum Lumina HCC lamp (Perkin-Elmer, Beaconsfield, UK).
Calibration standards were prepared individually for each assay batch by adding Carboplatin standards to control human plasma and ultrafiltrate. A blank was made using either plasma or ultrafiltrate only. A range of standards was made ranging from 5 to 50 ng ml^−1 Pt (plasma samples) to 10–150 ng ml^−1 Pt (ultrafiltrates).
For plasma analysis, three QCs were included in duplicate, ranging from low (15ng ml^−1 Pt) to medium (25 ng ml^−1 Pt) and high (45 ng ml^−1 Pt), by diluting stock solutions with plasma. For ultrafiltrate analysis low (20 ng ml^−1 Pt), medium (60 ng ml^−1 Pt) and high (120 ng ml^−1 Pt) QCs and stock solutions were diluted with plasma ultrafiltrate. A run was acceptable if four out of six QCs were within 15% of nominal concentration.

[4] = target: T1, thymidylate synthase (TS) (Homo sapiens, UniProt P04818); settings: ref Ford et al, 2002, cited from earlier work
T1 construct: endogenous in cells; host or cells: tissues of treated patients (in vivo)

[5] = system: ovarian cancer; settings: relapsed ovarian cancer, cited from earlier work
[6] = set-up: method as in Plummer et al, 2003; settings: ref Plummer et al, 2003, cited from earlier work; for AUC: mass spectroscopy
[7] = cited from earlier work
[8] = BGC9331 plasma pharmacokinetics by ELISA in phase I patients; settings: for Median Cmax / Median plasma clearance: ±s.d.; for AUClast / Cl_obs / Cmax / HL_Lambda_z / Vz_obs: BGC9331 65 mg m^−2, carboplatin AUC 5
Protocol: (§1) Prior to each assay the plasma samples were centrifuged at 3000 g for 5 min × 2, to sediment precipitants that would block pipette tips.
(§2) All dilutions required for the ELISA were performed by Multiprobe II automated liquid handling equipment (Perkin-Elmer, Cambridge, UK). […] Following further incubation and washing steps, the optical absorbance was read and plotted using a four-parameter logistic curve fitted by nonlinear regression as previously described ([Aherne et al, 2001]).
(§3) PK analysis was performed using WinNonlin Software, version 3.2 (Pharsight Corp., CA, USA). […] The following PK parameters were evaluated: maximum plasma concentration (Cmax), area under the plasma concentration–time curve (AUC), total body clearance (Cl), volume of distribution at steady state (Vss) and the terminal half-life (t1/2).

[9] = clinical; settings: human, plasma
Protocol: as §1, §2, §3

[10] = dose level 1 (BGC9331 40 mg m^−2, carboplatin AUC 5), day 1
[11] = dose level 1 (BGC9331 40 mg m^−2, carboplatin AUC 5), day 8
[12] = dose level 2 (BGC9331 65 mg m^−2, carboplatin AUC 5), day 1
[13] = dose level 2 (BGC9331 65 mg m^−2, carboplatin AUC 5), day 8

T1 sequence (P04818 2-313 limits assumed): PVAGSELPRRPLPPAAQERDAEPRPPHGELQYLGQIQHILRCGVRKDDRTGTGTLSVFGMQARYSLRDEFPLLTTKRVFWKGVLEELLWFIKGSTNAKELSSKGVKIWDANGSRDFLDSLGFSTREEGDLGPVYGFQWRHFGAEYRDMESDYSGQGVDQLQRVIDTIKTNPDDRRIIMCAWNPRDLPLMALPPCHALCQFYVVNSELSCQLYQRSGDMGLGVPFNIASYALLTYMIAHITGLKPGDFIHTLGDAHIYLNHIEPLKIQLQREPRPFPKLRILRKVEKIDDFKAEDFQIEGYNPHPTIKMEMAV

Question: Which results are given for C#CCN(Cc1ccc2nc(N)[nH]c(=O)c2c1)c1ccc(C(=O)N[C@@H](CCC(=O)O)C(=O)O)cc1 [CB3717, N10-propargyl-5,8-dideazafolic acid]?
Answer: cross-resistance to platinum-based agents [1]: non crossresistance; substrate for FPGS [2]: relatively poor substrate

Question: For N.N.O=C([O-])C1(C(=O)[O-])CCC1.[Pt+2] [carboplatin], which Alpha_HL ([3]; patient 1, dose level 1) is on record?
Answer: 2.2 h

Question: What about the Beta_HL ([3]; patient 1, dose level 1) of the same molecule?
Answer: 50.3 h

Question: And the CL ([3]; patient 1, dose level 1)?
Answer: 8.7 L/h

Question: And the V2 ([3]; patient 1, dose level 1)?
Answer: 91.2 L

Question: What about the Vss ([3]; patient 1, dose level 1) of the same molecule?
Answer: 123.3 L

Question: What about the Alpha_HL ([3]; patient 3, dose level 1) of the same molecule?
Answer: 1.2 h

Question: And the Beta_HL ([3]; patient 3, dose level 1)?
Answer: 8.2 h

Question: And the CL ([3]; patient 3, dose level 1)?
Answer: 4.8 L/h

Question: What about the V2 ([3]; patient 3, dose level 1) of the same molecule?
Answer: 15.1 L

Question: What about the Vss ([3]; patient 3, dose level 1) of the same molecule?
Answer: 27.1 L

Question: What about the Alpha_HL ([3]; patient 4, dose level 2) of the same molecule?
Answer: 2.4 h

Question: And the Beta_HL ([3]; patient 4, dose level 2)?
Answer: 100.9 h

Question: What about the CL ([3]; patient 4, dose level 2) of the same molecule?
Answer: 7.0 L/h

Question: What about the V2 ([3]; patient 4, dose level 2) of the same molecule?
Answer: 158.5 L

Question: What about the Vss ([3]; patient 4, dose level 2) of the same molecule?
Answer: 186.5 L

Question: What about the Alpha_HL ([3]; patient 5, dose level 2) of the same molecule?
Answer: 1.5 h

Question: And the Beta_HL ([3]; patient 5, dose level 2)?
Answer: 92.0 h

Question: What about the CL ([3]; patient 5, dose level 2) of the same molecule?
Answer: 6.0 L/h

Question: What about the V2 ([3]; patient 5, dose level 2) of the same molecule?
Answer: 101.0 L

Question: What about the Vss ([3]; patient 5, dose level 2) of the same molecule?
Answer: 115.6 L

Question: What about the Alpha_HL ([3]; patient 6, dose level 2) of the same molecule?
Answer: 1.8 h

Question: And the Beta_HL ([3]; patient 6, dose level 2)?
Answer: 60.4 h

Question: What about the CL ([3]; patient 6, dose level 2) of the same molecule?
Answer: 6.7 L/h

Question: What about the V2 ([3]; patient 6, dose level 2) of the same molecule?
Answer: 88.9 L

Question: And the Vss ([3]; patient 6, dose level 2)?
Answer: 109.7 L

Question: What about the Alpha_HL ([3]; patient 14, dose level 3) of the same molecule?
Answer: 0.4 h

Question: What about the Beta_HL ([3]; patient 14, dose level 3) of the same molecule?
Answer: 2.6 h

Question: What about the CL ([3]; patient 14, dose level 3) of the same molecule?
Answer: 6.1 L/h

Question: What about the V2 ([3]; patient 14, dose level 3) of the same molecule?
Answer: 8.6 L

Question: What about the Vss ([3]; patient 14, dose level 3) of the same molecule?
Answer: 16.5 L

Question: With O=c1[nH]cc(F)c(=O)[nH]1 [5-FU, 5-fluorouracil] as the molecule, how does the “peak dUrd elevation” value ([4]; bolus 5-FU) read?
Answer: 235±125%

Question: And the “peak dUrd elevation” value ([4]; infusional 5-FU)?
Answer: 228±86%

Question: And the response rate ([5]; ref Look et al, 1995)?
Answer: 14%

Question: With C#CCN(Cc1cc2c(=O)[nH]c(C)nc2cc1C)c1ccc(C(=O)N[C@@H](CCc2nnn[nH]2)C(=O)O)c(F)c1 [BGC9331] as the molecule, how does the AUC ([6]; BGC9331 monotherapy 42 mg m^−2) read?
Answer: 176 µg·h/mL

Question: And the Cmax ([6]; BGC9331 monotherapy 42 mg m^−2)?
Answer: 10400 ng/mL

Question: And the AUC ([6]; BGC9331 monotherapy 69 mg m^−2)?
Answer: 322 µg·h/mL

Question: And the Cmax ([6]; BGC9331 monotherapy 69 mg m^−2)?
Answer: 19100 ng/mL

Question: And the “patients with grade 3 or 4 neutropaenia” value ([7]; BGC9331 130 mg m^−2 days 1 and 8 with cisplatin 75 mg m^−2, ref Bilenker et al, 2004)?
Answer: three of the four

Question: What about the “patients affected by diarrhoea” value ([7]; previous studies, ref Rader et al, 2003) of the same molecule?
Answer: 36%

Question: And the “recommended single-agent phase II dose” value ([7]; ref Plummer et al, 2003)?
Answer: 130 mg m^−2

Question: And the “Median Cmax” value [8, 10]?
Answer: 11200 ± 2500 ng/mL and 11210 ng/mL

Question: What about the Median plasma clearance [8, 10] of the same molecule?
Answer: 478 ± 61 mL/h

Question: What about the “Median Cmax” value [8, 11] of the same molecule?
Answer: 7300 ± 5000 ng/mL

Question: What about the Median plasma clearance [8, 11] of the same molecule?
Answer: 971 ± 265 mL/h

Question: And the “Median Cmax” value [8, 12]?
Answer: 16500 ± 2400 ng/mL and 16540 ng/mL

Question: And the Median plasma clearance [8, 12]?
Answer: 1197 ± 580 mL/h

Question: What about the “Median Cmax” value [8, 13] of the same molecule?
Answer: 10400 ± 4000 ng/mL

Question: And the Median plasma clearance [8, 13]?
Answer: 746 ± 584 mL/h

Question: What about the AUClast ([8]; patient 4, administration 1) of the same molecule?
Answer: 90.4 µg·mL/h

Question: What about the Cl_obs ([8]; patient 4, administration 1) of the same molecule?
Answer: 1197.5 mL/h

Question: And the Cmax ([8]; patient 4, administration 1)?
Answer: 16800 ng/mL

Question: And the HL_Lambda_z ([8]; patient 4, administration 1)?
Answer: 18.2 h

Question: And the Vz_obs ([8]; patient 4, administration 1)?
Answer: 31423.8 mL

Question: What about the AUClast ([8]; patient 4, administration 2) of the same molecule?
Answer: 68.4 µg·mL/h

Question: What about the Cl_obs ([8]; patient 4, administration 2) of the same molecule?
Answer: 1646.5 mL/h

Question: What about the Cmax ([8]; patient 4, administration 2) of the same molecule?
Answer: 10400 ng/mL

Question: And the HL_Lambda_z ([8]; patient 4, administration 2)?
Answer: 27.8 h

Question: And the Vz_obs ([8]; patient 4, administration 2)?
Answer: 66088.6 mL

Question: What about the AUClast ([8]; patient 5, administration 1) of the same molecule?
Answer: 264.6 µg·mL/h

Question: What about the Cl_obs ([8]; patient 5, administration 1) of the same molecule?
Answer: 378.4 mL/h

Question: And the Cmax ([8]; patient 5, administration 1)?
Answer: 16600 ng/mL

Question: What about the HL_Lambda_z ([8]; patient 5, administration 1) of the same molecule?
Answer: 25.5 h

Question: And the Vz_obs ([8]; patient 5, administration 1)?
Answer: 13891.3 mL

Question: What about the AUClast ([8]; patient 5, administration 2) of the same molecule?
Answer: 193.3 µg·mL/h

Question: And the Cl_obs ([8]; patient 5, administration 2)?
Answer: 549.2 mL/h

Question: What about the Cmax ([8]; patient 5, administration 2) of the same molecule?
Answer: 16700 ng/mL

Question: What about the Vz_obs ([8]; patient 5, administration 2) of the same molecule?
Answer: 17208.1 mL

Question: And the AUClast ([8]; patient 6, administration 2)?
Answer: 141.3 µg·mL/h

Question: What about the Cl_obs ([8]; patient 6, administration 2) of the same molecule?
Answer: 746.0 mL/h

Question: What about the Cmax ([8]; patient 6, administration 2) of the same molecule?
Answer: 9300 ng/mL

Question: And the HL_Lambda_z ([8]; patient 6, administration 2)?
Answer: 28.1 h

Question: What about the Vz_obs ([8]; patient 6, administration 2) of the same molecule?
Answer: 30257.3 mL

Question: And the AUC ([9]; 40 mg)?
Answer: 110 µg·h/mL

Question: What about the Cmax ([9]; 40 mg) of the same molecule?
Answer: 7260 ng/mL

Question: What about the AUC ([9]; 65 mg) of the same molecule?
Answer: 140 µg·h/mL

Question: And the Cmax ([9]; 65 mg)?
Answer: 10400 ng/mL

Question: And the Tmax ([9]; 65 mg)?
Answer: 30 min

Question: Which “day on which dUrd reapproaches baseline” value ([4]; RTX on a 21-day cycle) does the source give for Cc1nc2ccc(CN(C)c3ccc(C(=O)N[C@@H](CCC(=O)O)C(=O)O)s3)cc2c(=O)[nH]1 [raltitrexed] here?
Answer: ~15 days

Question: And the “peak percentage rise of dUrd” value ([4]; RTX on a 21-day cycle)?
Answer: 349±128%

Question: What about the response rate ([5]; ref Gore et al, 1995) of the same molecule?
Answer: 7%

Question: And the response rate ([5]; ref Muggia et al, 1998)?
Answer: 11%

Question: What about the “cross-resistance to platinum-based agents” value [1] of the same molecule?
Answer: non crossresistance
